Experimental data taken from patent publication US10335409B2 (priority 2012, dated 2019).

Experiments:
Type in all cases: cell-based, hepatitis C virus
[1] = system: genotype 2a (JFH-1) stable HCV replicon in Huh-7-derived cells; assay: Stable subgenomic HCV replicon EC50, genotype 2a (Renilla luciferase); conditions: Hepatitis C virus, stable replicon genotype 2a, 72 h, read-out: EC50 2A RLUC
Description: (§1) Antiviral potency (EC50) was determined in both stable subgenomic HCV replicon cell lines and transient-transfected HCV replicon cells. The term half maximal effective concentration (EC50) refers to the concentration of a drug which induces a response halfway between the baseline and maximum after the exposure time specified below.
(§2) Stable subgenomic HCV replicons for genotype 1a, 1b, 2a, 3a, and 4a were established in Huh-7-derived cells as described by Lohmann et al (Lohmann V, Korner F, Koch J, et al Replication of subgenomic hepatitis C virus RNAs in a hepatoma cell line. Science 1999; 285:119-3) Each stable cell line contains a bicistronic HCV replicon that encodes a humanized Renilla luciferase (hRLuc) reporter gene fused to a selectable neomycin-resistance gene, followed by an EMCV IRES and the NS3-NS5B coding region of HCV. […] Luciferase activity was measured as a marker for intracellular HCV replication levels.
(§3) The genotype 1a stable replicon was derived from the H77 HCV strain and contained adaptive mutations P1496L and S2204I. The genotype 1b stable replicon was derived from the Con1 HCV strain and contained adaptive mutations E1202G, T1280I and K1846T. […] The genotype 3a stable replicon was derived from the S52 HCV strain and contained adaptive mutations P1121L, A1198T and S2210I (equivalent to S2204I in genotype 1). The genotype 4a stable replicon was derived from the ED43 HCV strain and contained adaptive mutations Q1691R and S2204I. All replicon cell lines were propagated in Huh-7-derived cells and maintained in Dulbecco's modified Eagle's Medium (DMEM) supplemented with 10% fetal bovine serum (FBS) and 0.5 mg/mL G418.
(§4) To perform EC50 assays, cells from each HCV replicon were dispensed into 384-well plates. Compounds were dissolved in DMSO at a concentration of 10 mM and diluted in DMSO using an automated pipetting instrument. Three-fold serially diluted compounds were directly added to the cells using an automated instrument. […] Seventy-two hours later, cells were lysed and Renilla luciferase activity were quantified as recommended by the manufacturer (Promega-Madison, Wis.). Non-linear regression was performed to calculate EC50 values.

[2] = system: genotype 1a (H77) stable HCV replicon in Huh-7-derived cells; assay: Stable subgenomic HCV replicon EC50, genotype 1a (Renilla luciferase); conditions: Hepatitis C virus, stable replicon genotype 1a, 72 h, read-out: EC50 1A RLUC
Description: as §1, §2, §3, §4

[3] = system: genotype 3a (S52) stable HCV replicon in Huh-7-derived cells; assay: Stable subgenomic HCV replicon EC50, genotype 3a (Renilla luciferase); conditions: Hepatitis C virus, 72 h, read-out: EC50 3A RLUC
Description: as §1, §2, §3, §4

[4] = system: genotype 1b NS3/4a protease inhibitor resistant variant D168A transient HCV replicon in Huh-7-derived cells; assay: Transient-transfected HCV replicon EC50, genotype 1b D168A; conditions: Hepatitis C virus, 72 h, read-out: EC50 1B D168A, transient-transfected replicon genotype 1b D168A resistant variant, 72 h
[5] = system: genotype 1a (H77) wild type transient HCV replicon in Huh-7-derived cells; assay: Transient-transfected HCV replicon EC50, genotype 1a wild type; conditions: Hepatitis C virus, 72 h, transient-transfected replicon genotype 1a wild type, read-out: EC50 1A WT
[6] = system: genotype 1a NS3/4a protease inhibitor resistant variant R155K transient HCV replicon in Huh-7-derived cells; assay: Transient-transfected HCV replicon EC50, genotype 1a R155K; conditions: Hepatitis C virus, 72 h, read-out: EC50 1A R155K, transient-transfected replicon genotype 1a R155K resistant variant, 72 h
[7] = system: genotype 1b (Con1) wild type transient HCV replicon in Huh-7-derived cells; assay: Transient-transfected HCV replicon EC50, genotype 1b wild type; conditions: Hepatitis C virus, 72 h, transient-transfected replicon genotype 1b wild type, read-out: EC50 1B WT
[8] = system: genotype 4a (ED43) stable HCV replicon in Huh-7-derived cells; assay: Stable subgenomic HCV replicon EC50, genotype 4a (Renilla luciferase); conditions: Hepatitis C virus, 72 h, read-out: EC50 4A RLUC
Description: as §1, §2, §3, §4

[9] = system: genotype 1b (Con1) stable HCV replicon in Huh-7-derived cells; assay: Stable subgenomic HCV replicon EC50, genotype 1b (Renilla luciferase); conditions: Hepatitis C virus, stable replicon genotype 1b, 72 h, read-out: EC50 1B RLUC
Description: as §1, §2, §3, §4

[10] = system: genotype 3a (S52) wild type transient HCV replicon in Huh-7-derived cells; assay: Transient-transfected HCV replicon EC50, genotype 3a wild type; conditions: Hepatitis C virus; transient-transfected replicon genotype 3a wild type, 72 h; read-out: EC50 3A WT

| SMILES | EC50 [1] [nM] | EC50 [2] [nM] | EC50 [3] [nM] | EC50 [4] [nM] | EC50 [5] [nM] | EC50 [6] [nM] | EC50 [7] [nM] | EC50 [8] [nM] | EC50 [9] [nM] | EC50 [10] [nM] |
| --- | --- | --- | --- | --- | --- | --- | --- | --- | --- | --- |
| COc1ccc2nc3c(nc2c1)O[C@H]1CN(C(=O)[C@H](C(C)(C)C)NC(=O)O[C@@H]2C[C@H]2CCCCC3)[C@H](C(=O)N[C@]2(C(=O)NS(=O)(=O)C3CC3)C[C@H]2CCF)[C@@H]1C [Example 22, (1aR,5S,8S,9S,10R,22aR)-5-tert-butyl-N-[(1R,25)-1-[(cyclopropylsulfonyl)carbamoyl]-2-(2-fluoroethyl)cyclopropyl]-14-methoxy-9-methyl-3,6-dioxo-1,1a,3,4,5,6,9,10,18,19,20,21,22,22a-tetradecahydro-8H-7,10-methanocyclopropa[18,19][1,10,3,6]dioxadiazacyclononadecino[11,12-b]quinoxaline-8-carboxamide] | 27 | 15 | 727 | 242 | 8.6 | 48 | 2.6 | 11 | 7.5 |  |
| COc1ccc2nc3c(nc2c1)O[C@H]1CN(C(=O)[C@H](C(C)(C)C)NC(=O)O[C@@H]2C[C@H]2CCCCC3)[C@H](C(=O)N[C@]2(C(=O)NS(=O)(=O)C3(C)CC3)C[C@H]2CCF)[C@@H]1C [Example 23, (1aR,5S,8S,9S,10R,22aR)-5-tert-butyl-N-[(1R,2S)-2-(2-fluoroethyl)-1-{[(1-methylcyclopropyl)sulfonyl]carbamoyl}cyclopropyl]-14-methoxy-9-methyl-3,6-dioxo-1,1a,3,4,5,6,9,10,18,19,20,21,22,22a-tetradecahydro-8H-7,10-methanocyclopropa[18,19][1,10,3,6]dioxadiazacyclononadecino[11,12-b]quinoxaline-8-carboxamide] | 23 | 13 | 587 | 173 | 9.5 | 36 | 3.6 | 9.9 | 7.5 |  |
| COc1ccc2nc3c(nc2c1)O[C@H]1CN(C(=O)[C@H](C(C)(C)C)NC(=O)O[C@@H]2C[C@H]2CCCCC3)[C@H](C(=O)N[C@]2(C(=O)NS(=O)(=O)C3CC3)C[C@H]2CC(F)F)[C@@H]1C [Example 24, (1aR,5S,8S,9S,10R,22aR)-5-tert-butyl-N-[(1R,2S)-1-[(cyclopropylsulfonoyl)carbamoyl]-2-(2,2-difluoroethyl)cyclopropyl]-14-methoxy-9-methyl-3,6-dioxo-1,1a,3,4,5,6,9,10,18,19,20,21,22,22a-tetradecahydro-8H-7,10-methanocyclopropa[18,19][1,10,3,6]dioxadiazacyclononadecino[11,12-b]quinoxaline-8-carboxamide] | 20 | 12 | 663 | 284 | 9.3 | 49 | 3.2 | 9.2 | 7.5 |  |
| COc1ccc2nc3c(nc2c1)O[C@H]1CN(C(=O)[C@H](C(C)(C)C)NC(=O)O[C@@H]2C[C@H]2CCCCC3)[C@H](C(=O)N[C@]2(C(=O)NS(=O)(=O)C3(C)CC3)C[C@H]2CC(F)F)[C@@H]1C [Example 25, (1aR,5S,8S,9S,10R,22aR)-5-tert-butyl-N-[(1R,2S)-2-(2,2-difluoroethyl)-1-{[(1-methylcyclopropyl)sulfonyl]carbamoyl}cyclopropyl]-14-methoxy-9-methyl-3,6-dioxo-1,1a,3,4,5,6,9,10,18,19,20,21,22,22a-tetradecahydro-8H-7,10-methanocyclopropa[18,19][1,10,3,6]dioxadiazacyclononadecino[11,12-b]quinoxaline-8-carboxamide] | 13 | 8.8 | 409 | 116 | 4.4 | 17 | 3.6 | 7.1 | 6.3 |  |
| COc1ccc2nc3c(nc2c1)O[C@H]1CN(C(=O)[C@H](C(C)(C)C)NC(=O)O[C@@H]2CCC[C@H]2CCCCC3)[C@H](C(=O)N[C@]2(C(=O)NS(=O)(=O)C3CC3)C[C@H]2C(F)F)[C@@H]1C [Example 28, (3aR,7S,10S,11S,12R,24aR)-7-tert-butyl-N-[(1R,2R)-1-[(cyclopropylsulfonyl)carbamoyl]-2-(difluoromethyl)cyclopropyl]-16-methoxy-11-methyl-5,8-dioxo-1,2,3,3a,5,6,7,8,11,12,20,21,22,23,24,24a-hexadecahydro-10H-9,12-methanocyclopenta[18,19][1,10,3,6]dioxadiazacyclononadecino[11,12-b]quinoxaline-10-carboxamide] | 6.2 | 6.7 | 266 | 54 | 3 | 9 | 3.4 | 4.1 | 4.6 |  |
| COc1ccc2nc3c(nc2c1)O[C@H]1CN(C(=O)[C@H](C(C)(C)C)NC(=O)O[C@@]2(C)C[C@@H]2CCCCC3)[C@H](C(=O)N[C@]2(C(=O)NS(=O)(=O)C3(C)CC3)C[C@H]2C(F)F)[C@@H]1C [Example 45, (1aS,5S,8S,9S,10R,22aS)-5-tert-butyl-N-[(1R,2R)-2-(difluoromethyl)-1-{[(1-methylcyclopropyl)sulfonyl]carbamoyl}cyclopropyl]-14-methoxy-1a,9-dimethyl-3,6-dioxo-1,1a,3,4,5,6,9,10,18,19,20,21,22,22a-tetradecahydro-8H-7,10-methanocyclopropa[18,19][1,10,3,6]dioxadiazacyclononadecino[11,12-b]quinoxaline-8-carboxamide] | 24 | 21 | 549 | 88 | 13 | 35 | 5.3 | 13 | 8.3 |  |
| CC[C@@H]1[C@@H]2CN(C(=O)[C@H](C(C)(C)C)NC(=O)O[C@@H]3C[C@H]3CCCCC(F)c3nc4ccc(OC)cc4nc3O2)[C@@H]1C(=O)N[C@]1(C(=O)NS(=O)(=O)C2(C)CC2)C[C@H]1C(F)F (stereo partly drawn) [Example 90, (1aR,5S,8S,9S,10R,22aR)-5-tert-butyl-N-[(1R,2R)-2-(difluoromethyl)-1-{[(1-methylcyclopropyl)sulfonyl]carbamoyl}cyclopropyl]-9-ethyl-18-fluoro-14-methoxy-3,6-dioxo-1,1a,3,4,5,6,9,10,18,19,20,21,22,22a-tetradecahydro-8H-7,10-methanocyclopropa[18,19][1,10,3,6]dioxadiazacyclononadecino[11,12-b]quinoxaline-8-carboxamide] | 8.8 | 12 | 114 |  |  |  |  | 10.4 | 9.6 | 43 |
